Measurements: a melting point compilation (Tetko et al.; mined from patent text by program, amines drawn as free bases though some values may be those of a salt)

Row | melting point [°C] | Compound
1 | 266 to 267 | O=C(O)c1[nH]c2cc(Cl)cc(Cl)c2c1N(Cc1ccccc1)C(=O)c1ccccc1
2 | 165 to 166 | O=c1[nH]c(N2CCN(CCCCN3CCCCC3)CC2)cc2c(Br)cccc12
3 | 190 to 192 | O=[N+]([O-])c1ccc2c(c1)C=Cc1ccc(Br)cc1S2
4 | 73 to 74 | COc1cc2c(c(OC)c1/C=C/c1ccc(COC(C)=O)cc1)C(C)(C)CCC2(C)C
5 | 174 to 175 | Cc1nc2c(O[C@H]3c4ccccc4C[C@@H]3O)cccn2c1CO
6 | 200 to 203 | CCOC(=O)NC(C(=O)NN(Cc1ccc(-c2cncs2)cc1)CC(O)C(Cc1ccccc1)NC(=O)C(NC(=O)OC)C(C)CC)C(C)C (stereo not given)
7 | 130 | CC1(C)CCC(C)(C)c2cc(C#Cc3ccc(C=O)cc3)ccc21
8 | 62 to 63.5 | CCc1ccc(CCc2ccccc2NC=O)nc1
9 | 46 to 48 | Cc1ccc(Oc2ccc(C=O)cc2)c(O)c1
10 | 158 to 160 | CCc1ncn(Nc2cccc(C)c2)c1-c1ccccc1
11 | 207 to 209 | OCc1csc(Nc2ccc(Br)cn2)n1
12 | 223 to 224 | COC(=O)c1ccc2c(c1)C(C(=O)O)c1ccccc1CO2 (stereo not given)
13 | 148 to 150 | Cc1ccc(S(=O)(=O)c2nc(C(N)=O)n[nH]2)cc1
14 | 152 to 153 | O=C(NO)c1ccc(CNC(=O)c2[nH]c(-c3ccccc3)cc2-c2ccc(F)cc2)o1
15 | 163 to 164 | CCCCNC(=O)NS(=O)(=O)CCc1c(C)nn(C)c1-n1ccc2cc(C(F)(F)F)cnc21
16 | 156 | Clc1cc(Cl)cc(-c2cc[nH]n2)c1
17 | 198 to 199 | O=C(NOc1ncc(C(F)(F)F)cc1Cl)c1cccc2ccccc12
18 | 103 to 104 | CCOP(=O)(/C=C/c1cn(-c2ccccc2)nc1OCc1ccc(OCc2cn(-c3ccccn3)nc2C)c(OC)c1)OCC
19 | 190 to 191 | O=C(O)c1cccc(-c2ccc3c(c2)C(NCc2ccc(Cl)cc2Cl)CC3)c1 (stereo not given)

Row | melting point [°C] | Compound
20 | 233 to 235 | CCOC(=O)c1ccc(-c2cc(-c3ccc4c(c3)C(C)(C)CCC4(C)C)ccc2-c2ccccc2)cc1
21 | 113 | Cc1cc(C)c(S(=O)(=O)N(C)C)cc1[N+](=O)[O-]
22 | 248 | COc1ccc(C(=O)c2ccc3[nH]c(=O)nc(-c4cccc(Cl)c4)c3c2)cc1
23 | 125 to 126 | Cc1cc(C)c2c(c1O)C(NC(=O)CN1CCN(c3cccc(Cl)c3)CC1)C(C)(C)C2 (stereo not given)
24 | 51 to 53 | CCCCc1nc(C(F)(F)F)c(C(=O)OCC)[nH]1
25 | 67 to 69 | CCOC1=CC(C)=C(C(=O)OC)C(C)(C)C1
26 | 192 to 193 | Cc1c(C2CCN(Cc3ccc(Cl)cc3)CC2)n[nH]c1-c1ccccc1
27 | 138 to 139 | Fc1ccc(CSc2nnc(-c3ccc4c(c3)CCO4)o2)cc1F
28 | 94.7 | N#Cc1cccc2c(C3CCCCC3)nccc12
29 | 158 to 160 | COC(OC)c1cnc(-c2ccccc2)[nH]1
30 | 191 | CC(C)C(=O)OC1(C(=O)CO)CCC2C3CC(C)C4=CC(=O)CCC4(C)C3C(O)CC21C (stereo not given)
31 | 274 to 275 | Cc1noc(C)c1C(=O)N1CCC2(CC1)CSC1=C(O2)c2ccccc2C(=O)C1=O
32 | 215 to 217 | CN(C)CC=CC(=O)Nc1ccc2ncnc(Nc3cccc(Br)c3)c2c1
33 | 169 to 171 | CCOC(=O)COc1ccc(-c2cc(O)c(SCCc3ccccc3)c(=O)o2)cc1
34 | 130 | CC(=O)N1CC(=O)N(CCc2ccccc2)C(=O)C1
35 | 166 to 168 | CC(C)CC(NC(=O)O)C(=O)NC(C)(C)C#N (stereo not given)
36 | 69 to 70 | CCOC(=O)c1ccc(C2=NOCCS2)cc1
37 | 160 to 162 | NCC1Cc2cc(Cl)cc(-c3cc(Cl)ccc3Cl)c2O1 (stereo not given)
38 | 113 to 114 | COCc1nnc(NC(=O)C2c3ccccc3Oc3ccccc32)o1

Row | Compound | melting point [°C]
39 | Cc1ccc(S(=O)(=O)N2CC2)cc1 | 51 to 52
40 | COC(=O)[C@@H]1C[C@H](NS(=O)(=O)c2ccccc2)C(=O)[C@H]2[C@@]1(C)CC[C@H]1C(=O)O[C@H](c3ccoc3)C[C@]21C | 271 to 273
